Experimental data reported in PubChem BioAssay AID732 (Emory University Molecular Libraries Screening Center, 2007).
“And” between values parts separate entries of the source, which are not always exact repeats. Equal values may be shown once. The source made the active and inactive calls. The rule behind the calls is not given here.

The compounds below were run on in vivo angiogenesis, blood vessel count (assay: angiogenesis inhibition in living animals, in vivo study, HTS (AID 732;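 note: zebrafish embryos dosed at one day post fertilization; 0% = reference inhibitor and 100% = plate mean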)). Settings: active compounds read low;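 tested at 30 µM in the well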.

Row | SMILES | vessel count % control
1 | O=c1cc(O)cc(/C=C/c2ccc(O)c(O)c2)o1 | 122% (inactive)
2 | OCc1cc(C(O)CNCCCCCCOCCCCc2ccccc2)ccc1O (configuration not stated) | 126% (inactive)
3 | C[N+](C)(C)CCOC(N)=O | 114% (inactive)
4 | C=CCN1CCC2(C)c3cc(O)ccc3CC1[C@@H]2C (some centres not stated) | 89.5% (inactive)
5 | Oc1[nH]c2c(Cl)cc(Cl)cc2c1C1=Nc2ccc(Br)cc2/C1=N\OCCBr | 121% (inactive)
6 | Cn1cc(C(F)(F)F)nc1-c1ccc(OCC(O)CNCCOc2ccc(O)c(C(N)=O)c2)cc1 (configuration not stated) | 82.4% (inactive)
7 | C/C=C/CC(C)C(O)C1C(=O)NC(CC)C(=O)N(C)CC(=O)N(C)C(CC(C)C)C(=O)NC(C(C)C)C(=O)N(C)C(CC(C)C)C(=O)NC(C)C(=O)NC(C)C(=O)N(C)C(CC(C)C)C(=O)N(C)C(CC(C)C)C(=O)N(C)C(C(C)C)C(=O)N1C (configuration not stated) | 108% (inactive)
8 | O=C(c1ccccc1)c1ccc2n1CCC2C(=O)O (configuration not stated) | 79.7% (inactive)
9 | CP(=O)(O)CCCN | 76.1% (inactive)
10 | O=C(O)c1cc(=O)c2ccccc2[nH]1 | 97.4% (inactive)
11 | CC(C)(O)[C@@H]1[C@H]2OC(=O)[C@@H]1[C@]1(O)C[C@H]3O[C@]34C(=O)O[C@H]2[C@]14C (tested in a mixture with another compound) | 116% (inactive)
12 | Nc1ncnc2c1ncn2C1CCCC1 | 81.5% (inactive)
13 | CC(C)(C=O)Cc1cc(C(C)(C)C)c(O)c(C(C)(C)C)c1 | 98.1% (inactive)
14 | NC(N)=N[C@@H](CCC(=O)O)C(=O)O | 99.2% (inactive)
15 | NCCCNCCCCNCCCN | 115% (inactive)
16 | C[C@@](Cc1ccc(O)c(O)c1)(NN)C(=O)O | 94.6% (inactive)
17 | c1cc(CN2CCCCC2)cc(OCCCNc2nc3ccccc3s2)c1 | 112% (inactive)
18 | COc1ccccc1N1CCN(CCCCNS(=O)(=O)c2cccc3c(N(C)C)cccc23)CC1 | 67.5% (inactive)
19 | N=c1c[n+](N2CCOCC2)[n-]o1 | 110% (inactive)
20 | O=Nc1c(-c2c(O)[nH]c3ccc(S(=O)(=O)O)cc23)[nH]c2ccccc12 | 92.9% (inactive)
21 | CCCNCC(O)COc1ccccc1C(=O)CCc1ccccc1 (configuration not stated) | 102% (inactive)
22 | NCc1cc(=O)[nH]o1 | 110% (inactive)
23 | CCCn1cnc2c1c(=O)n(CCCCC(C)=O)c(=O)n2C | 107% (inactive)
24 | NC1CC1c1ccccc1 (configuration not stated) | 94.1% (inactive)
25 | Oc1ccc(/C=C/c2cc(O)cc(O)c2)cc1 | 100% (inactive)

Row | SMILES | vessel count % control
26 | CN1C2CC(OC(=O)[C@H](CO)c3ccccc3)CC1C1OC12 (some centres not stated) | 79.7% (inactive)
27 | NS(=O)(=O)c1cccc2c1c([N+](=O)[O-])cc1nc(O)c(O)nc12 | 111% (inactive)
28 | Oc1ccc(-c2nc(-c3ccc(F)cc3)c(-c3ccncc3)[nH]2)cc1 | 97.9% (inactive)
29 | CN(C)CCC(c1ccc(Br)cc1)c1ccccn1 (configuration not stated) | 92.3% (inactive)
30 | CC(C)NCC(O)COc1ccc(CCOCC2CC2)cc1 (configuration not stated) | 94.3% (inactive)
31 | CCCCCCCCCCC/C=C\C(C)(C)/C=C\CCCC(=O)O | 79.5% (inactive)
32 | Cc1sc2ccccc2c1CC1=NCCN1 | 92.5% (inactive)
33 | CN(C)S(=O)(=O)c1ccc2c(c1)/C(=C/c1cc3c([nH]1)CCCC3)C(=O)N2 | 120% (inactive)
34 | O=C1NC(c2cccc([N+](=O)[O-])c2)=CCN1c1ccccc1O | 91.3% (inactive)
35 | Cc1c(OCC(F)(F)F)ccnc1CS(=O)c1nc2ccccc2[nH]1 (configuration not stated) | 76.7% (inactive)
36 | CCN(CC)CC(=O)Nc1c(C)cccc1C | 73.7% (inactive)
37 | CN1C2CCC1CC(NC(=O)c1nn(C)c3ccccc13)C2 (configuration not stated) | 104% (inactive)
38 | C=CCN1CCC23c4c5ccc(O)c4O[C@H]2C(=O)CC[C@@]3(O)C1C5 (some centres not stated) | 88.4% (inactive)
39 | NCCCCCC(=O)O | 116% (inactive)
40 | C[C@]12CCC3C(CC[C@H]4C[C@H](O)CC[C@]34C)C1CC[C@@H]2C(=O)CO (some centres not stated) | 105% (inactive)
41 | COc1ccccc1N1CCN(CCN(C(=O)c2ccc(F)cc2)c2ccccn2)CC1 | 103% (inactive)
42 | NC(=O)CNCCC(c1ccccc1)c1ccccc1 | 119% (inactive)
43 | CNCC(O)c1ccc(O)c(O)c1 (configuration not stated) | 123% (inactive)
44 | N#C/C(=C\c1ccc(O)c(O)c1)C(=O)Nc1ccccc1 | 104% (inactive)
45 | COc1cc2c(CCNC(C)=O)c[nH]c2cc1Cl | 71.1% (inactive)
46 | COc1cc2c(cc1C(F)(F)F)N(C(=O)Nc1cc(F)cc(-c3cccnc3)c1)CC2 | 95.3% (inactive)
47 | O=Nc1c(-c2c(O)[nH]c3c(Cl)cc(Cl)cc23)[nH]c2ccc(Br)cc12 | 126% (inactive)
48 | CCCC1O[C@@H]2C[C@H]3[C@@H]4CCC5=CC(=O)C=C[C@]5(C)[C@H]4[C@@H](O)C[C@]3(C)[C@]2(C(=O)CO)O1 (some centres not stated) | 120% (inactive)
49 | CS(=N)(=O)CC[C@H](N)C(=O)O (some centres not stated) | 99.4% (inactive)
50 | C=C(C)[C@H]1Cc2c(ccc3c2O[C@@H]2COc4cc(OC)c(OC)cc4[C@@H]2C3=O)O1 | 0% (inactive)

Row | SMILES | vessel count % control
51 | CC(C(O)c1ccc(O)cc1)N1CCC(Cc2ccccc2)CC1 (configuration not stated) | 0% (inactive)
52 | CN1C[C@H](C(=O)N[C@]2(C)O[C@@]3(O)[C@@H]4CCCN4C(=O)[C@H](Cc4ccccc4)N3C2=O)C[C@@H]2c3cccc4[nH]cc(c34)C[C@H]21 | 98.7% (inactive)
53 | O=C(O)CN(CCN(CC(=O)O)CC(=O)O)CCN(CC(=O)O)CC(=O)O | 0% (inactive)
54 | O=c1[nH]c2cc([N+](=O)[O-])c([N+](=O)[O-])cc2[nH]c1=O | 104% (inactive)
55 | CC(C(=O)O)c1cccc(C(=O)c2ccccc2)c1 (configuration not stated) | 122% (inactive)
56 | CC(C)(C)c1cc(/C=C(\C#N)C(N)=S)cc(C(C)(C)C)c1O | 0% (inactive)
57 | CC(C)(C)NCC(O)c1ccc(O)c(CO)c1 (configuration not stated) | 122% (inactive) and 102% (inactive)
58 | CC(=O)O[C@]1(C(C)=O)CC[C@H]2[C@@H]3C=C(Cl)C4=CC(=O)[C@@H]5C[C@@H]5[C@]4(C)[C@H]3CC[C@@]21C | 71.2% (inactive)
59 | C[C@]12Cc3cn4c(nc3C=C1CCC1C2CC[C@@]2(C)[C@H]1CC[C@@]2(O)C#N)nc1ccccc14 (some centres not stated) | 97% (inactive)
60 | CC1(C)C(=O)N(CCN2CCC(C(=O)c3ccc(F)cc3)CC2)c2ccccc21 | 118% (inactive)
61 | CCCN1CCC[C@@H](c2cccc(C#N)c2)C1 | 103% (inactive)
62 | O=C1c2c(O)ccc(O)c2C(=O)c2c(NCCNCCO)ccc(NCCNCCO)c21 | 136% (inactive)
63 | CCCN1CCC[C@@H]2Cc3nc(N)ncc3C[C@H]21 | 107% (inactive)
64 | c1ccc2nc(C3=NCCN3)ccc2c1 | 97.4% (inactive)
65 | COc1ccc(C(=O)N2CCCC2=O)cc1 | 116% (inactive)
66 | O=C1N(c2ccccc2)c2ccccc2C1(Cc1ccncc1)Cc1ccncc1 | 96.6% (inactive)
67 | CC(=O)N[C@@H](Cc1c[nH]c2ccccc12)C(=O)OCc1cc(C(F)(F)F)cc(C(F)(F)F)c1 | 70.4% (inactive)
68 | CC(C)(C)c1cc(C=C(C#N)C#N)cc(C(C)(C)C)c1O | 0% (inactive)
69 | CC(C)Cn1c(=O)n(C)c(=O)c2[nH]cnc21 | 78.7% (inactive)
70 | CCc1c(C(=O)OC)ncc2[nH]c3cc(OC)c(OC)cc3c12 | 129% (inactive)
71 | CC1CCN=C(N)S1 (configuration not stated) | 92% (inactive)
72 | CCCCCN(CCCCC)C(=O)C(CCC(=O)O)NC(=O)c1ccc(Cl)c(Cl)c1 (configuration not stated) | 81.3% (inactive)
73 | NCCC(=O)NCCc1cnc[nH]1 | 84.2% (inactive)
74 | CNC(=O)[C@H]1O[C@@H](n2cnc3c(NCc4cccc(I)c4)ncnc32)C(O)[C@H]1O (some centres not stated) | 83.3% (inactive)
75 | COCCCC/C(=N\OCCN)c1ccc(C(F)(F)F)cc1 | 145% (inactive)

Row | SMILES | vessel count % control
76 | CN(C)c1ccc(/C=C2\C(=O)Nc3ccccc32)cc1 | 36.7%
77 | Nc1cc(=O)[nH]c(N)n1 | 119% (inactive)
78 | COC(=O)c1c(-c2cc(OC)c(OC)c(OC)c2)c2ccc(OCc3ccccn3)cc2c(=O)n1-c1ccc(N)cc1 | 109% (inactive)
79 | C[C@]12CC[C@@H](O)CC1CC[C@@H]1[C@@H]2CC[C@]2(C)C(=O)CC[C@@H]12 (some centres not stated) | 104% (inactive)
80 | CNCCc1c[nH]c2ccc(O)cc12 | 101% (inactive)
81 | Cc1cn[nH]c1 | 87.3% (inactive)
82 | S=C(S)OC1CC2CC1C1CCCC21 (configuration not stated) | 86.8% (inactive)
83 | O=c1[nH]c2ccccc2c2ccccc12 | 103% (inactive)
84 | CN1C(C)(C)CCCC1(C)C | 106% (inactive)
85 | CN(C)CCCC1(c2ccc(F)cc2)OCc2cc(C#N)ccc21 (configuration not stated) | 99.8% (inactive)
86 | COc1cc(C(O)C(=O)O)ccc1O (configuration not stated) | 92.5% (inactive)
87 | COc1ccc(-n2nc(C(F)(F)F)cc2-c2ccc(Cl)cc2)cc1 | 126% (inactive)
88 | N#CC(C#N)=Cc1ccc(O)c(O)c1 | 119% (inactive)
89 | O=C(O)c1cccnc1C(=O)O | 88.1% (inactive)
90 | CCCOc1ccccc1-c1nc2n[nH]nc2c(=O)[nH]1 | 119% (inactive)
91 | CN1CCC23CCCC[C@H]2C1Cc1ccc(O)cc13 (some centres not stated) | 100% (inactive)
92 | CC1=C(/C=C/C(C)=C/C=C/C(C)=C\C(=O)O)C(C)(C)CCC1 | 76.1% (inactive)
93 | NCC(O)(CS(=O)(=O)O)c1ccc(Cl)cc1 (configuration not stated) | 94.5% (inactive)
94 | Cn1c(=O)c2[nH]c(C3CCCC3)nc2n(C)c1=O | 104% (inactive)
95 | N[C@H](CCC(=O)NCS(=O)(=O)O)C(=O)O | 102% (inactive)
96 | CN(C)CCCN1c2ccccc2Sc2ccc(C(F)(F)F)cc21 | 105% (inactive)
97 | COC(=O)[C@@H]1[C@H]2C[C@H]3c4[nH]c5ccccc5c4CCN3C[C@@H]2CC[C@@H]1O | 95.4% (inactive)
